What was measured:
[1] = tested on: Pseudomonas aeruginosa strain PA14; experiment: Antibacterial effect on P. aeruginosa PA14 growth; type: cell-based; conditions: PA14, read-out: P. aeruginosa PA14 % inhibition of growth at 100 µM, 18 h, 37 °C
Procedure: Table S14: Food consumption after treatment with (R)-30.
Table S15: Body and organ weights (gram) after treatment with (R)-30.
3.12 Antibacterial effects
As start OD600 of Pseudomonas aeruginosa strain PA14 we used 0.03 in a total volume of 200
µL in lysogeny broth containing the compounds predissolved in DMSO (max. 1%). Final
compound concentrations prepared from serial dilutions ranged from 3.125 to 100 µM (double
values for each concentration). The ODs were determined after addition of the compounds and
again after incubation for 18 h at 37 °C and 200 rpm in 96 well plates (Sarstedt, Nümbrecht,
Germany) using a FLUOStar Omega (BMG labtech, Ortenberg, Germany). Given percent (%)
inhibition values are means of at least two independent determinations. To obtain the values
for a given compound, their ODs were compared to those of DMSO controls. Concerning the […]

MMP-1 = target: T1, MMP-1 (Homo sapiens, UniProt P03956); experiment: MMP-1 inhibition (off-target); type: biochemical; conditions: read-out: MMP-1 % inhibition at 100 µM
T1 construct: purchased AnaSpec (Fremont, CA, USA)
T1 sequence (P03956 100-469): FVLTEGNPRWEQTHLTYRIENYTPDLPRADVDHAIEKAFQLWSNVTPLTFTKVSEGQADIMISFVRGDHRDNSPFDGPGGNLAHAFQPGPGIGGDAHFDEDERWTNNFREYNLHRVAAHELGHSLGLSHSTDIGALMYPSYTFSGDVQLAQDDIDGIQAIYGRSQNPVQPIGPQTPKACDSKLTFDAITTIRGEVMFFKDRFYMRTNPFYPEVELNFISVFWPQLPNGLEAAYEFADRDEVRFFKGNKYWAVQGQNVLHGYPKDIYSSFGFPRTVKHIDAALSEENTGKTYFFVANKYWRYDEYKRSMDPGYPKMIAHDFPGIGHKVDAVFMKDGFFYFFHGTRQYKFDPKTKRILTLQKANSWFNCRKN
Procedure: 3.1 In vitro inhibition assays
(§1) LasB was expressed and purified as described previously.[3] In vitro inhibition assays (LasB, MMPs, TACE). All in vitro inhibition assays were performed as described previously.[10] TACE inhibitor screening kits were purchased from Sigma-Aldrich (Saint Louis, MO). MMPs along with the SensoLyte 520 Generic MMP Activity Kit Fluorimetric were purchased from AnaSpec (Fremont, CA, USA). The assays were performed according to the guidelines of the respective manufacturer. Fluorescence signals were measured using a CLARIOstar plate reader (BMG Labtech, Ortenberg, Germany). […]
(§2) 3.8 Test against zinc metalloproteases MMP1–3 and TACE (ADAM17), and testing of
(§3) We selected a panel of human off -targets, including three human matrix metalloproteases (MMP-1, -2 and -3) and TACE (ADAM-17). These assays were performed as described previously.[3] The TACE inhibitor screening kit was purchased from Sigma -Aldrich (Saint Louis, MO). MMPs along with the SensoLyte 520 Generic MMP Activity Kit Fluorimetric were purchased from AnaSpec (Fremont, CA, USA). The assays were performed according to the guidelines of the respective manufacturer. Fluorescence signals were measured using a CLARIOstar plate reader (BMG Labtech, Ortenberg, Germany). […]
(§4) Table S6: Percent (%) inhibition of three MMPs (1 –3) and TACE (ADAM17) in presence of selected LasB inhibitors at 100 µM. Results are means and SD of at least two independent experiments. […]
(§5) Compound [% inhibition at [% inhibition at [% inhibition at [% inhibition at 100

A549 cells = experiment: Cytotoxicity A549; type: cell-based; conditions: Homo sapiens, A549, read-out: A549 % inhibition at 100 µM (metabolic activity), 48 hours
Procedure: (§6) HepG2 (human hepatocellular carcinoma), HEK293 (human embryonal kidney) and A549
(§7) (human lung carcinoma) cells (2x10^5 cells per well) were seeded in 24-well in flat-bottomed
(§8) plates. Culturing of cells, incubations and OD measurements were performed as described
(§9) previously with small modifications.[14] Twenty-four hours after seeding the cells the incubation
(§10) was started by the addition of compounds in a final DMSO concentration of 1%. The living cell
(§11) mass was determined after 48 hours in a PHERAstar microplate reader (BMG labtech,
(§12) Ortenberg, Germany). Two independent measurements were performed for each compound.

MMP-2 = target: T2, MMP-2 (Homo sapiens, UniProt P08253); experiment: MMP-2 inhibition (off-target); type: biochemical; conditions: read-out: MMP-2 % inhibition at 100 µM
T2 construct: purchased AnaSpec (Fremont, CA, USA)
T2 sequence (P08253 110-660): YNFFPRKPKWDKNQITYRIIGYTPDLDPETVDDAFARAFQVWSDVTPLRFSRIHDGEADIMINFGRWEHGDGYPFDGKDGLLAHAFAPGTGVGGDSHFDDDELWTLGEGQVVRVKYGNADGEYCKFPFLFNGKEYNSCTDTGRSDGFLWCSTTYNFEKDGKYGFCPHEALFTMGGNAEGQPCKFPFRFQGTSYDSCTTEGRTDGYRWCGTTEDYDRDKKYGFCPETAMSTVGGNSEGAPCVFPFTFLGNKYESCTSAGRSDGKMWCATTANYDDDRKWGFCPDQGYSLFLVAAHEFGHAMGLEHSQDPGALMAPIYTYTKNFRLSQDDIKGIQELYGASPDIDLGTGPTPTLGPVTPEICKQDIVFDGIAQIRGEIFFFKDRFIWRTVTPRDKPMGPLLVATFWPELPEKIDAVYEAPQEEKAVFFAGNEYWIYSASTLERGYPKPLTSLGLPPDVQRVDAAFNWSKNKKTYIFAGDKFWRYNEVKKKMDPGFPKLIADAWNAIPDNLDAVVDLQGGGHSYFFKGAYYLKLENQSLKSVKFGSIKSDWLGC
Procedure: 3.1 In vitro inhibition assays […]
as §1, with “MMPs,” for “LasB was expressed and purified as described previously.[3] In vitro inhibition assays (LasB, MMPs,”
as §2, §3, §4, §5

HepG2 cells = experiment: Cytotoxicity HepG2; type: cell-based; conditions: Homo sapiens, HepG2, read-out: HepG2 % inhibition at 100 µM (metabolic activity), 48 hours
Procedure: as §6, §7, §8, §9, §10, §11, §12

HEK293 cells = experiment: Cytotoxicity HEK293; type: cell-based; conditions: Homo sapiens, HEK293, read-out: HEK293 % inhibition at 100 µM (metabolic activity), 48 hours
Procedure: as §6, §7, §8, §9, §10, §11, §12

[2] = Kinetic solubility in PBS pH 7.4; type: physicochemical; conditions: aqueous buffer, kinetic from dmso stock
Procedure: The desired compounds were sequentially diluted in DMSO in a 96-well plate. 1.5 µL of each well were transferred into another 96-well plate and mixed with 148.5 µL of PBS. Plates were shaken for 5 min at 600 rpm at room temperature (r.t.), and the absorbance at 620 nm was measured. Absorbance values were normalized by blank subtraction and plotted using GraphPad Prism 8.4.2 (GraphPad Software, San Diego, CA, USA). […]

In the case of `CC(C)CC(C(=O)N[C@H](C(=O)Nc1ccc(Cl)c(Cl)c1)C(C)C)P(=O)(O)O` (stereo partly drawn) [compound 9], the inhibition at 100 µM [1] is reported as < 10%, the inhibition at 100 µM (MMP-1) is reported as 13 ± 1% and the inhibition at 100 µM (A549 cells) is reported as < 10%. The inhibition at 100 µM (MMP-2) was < 10%, the inhibition at 100 µM (HepG2 cells) was < 10% and the inhibition at 100 µM (HEK293 cells) was < 10%. The solubility kinetic at 5 min [2] was > 200 µM.

For `CC(C)C[C@H](C(=O)N[C@H](C(=O)Nc1ccc(-n2ccnc2)cc1)C(C)C)P(=O)(O)O` [(R)‐36], the inhibition at 100 µM [1] was < 10%, the inhibition at 100 µM (MMP-1) was < 10% and the inhibition at 100 µM (A549 cells) was < 10%. The inhibition at 100 µM (MMP-2) was < 10%, the inhibition at 100 µM (HepG2 cells) was < 10% and the inhibition at 100 µM (HEK293 cells) was 11 ± 9%. For the same molecule, the solubility kinetic at 5 min [2] was > 200 µM.

For `CC(C)CC(C(=O)N[C@H](C(=O)Nc1ccc(Cl)c(Cl)c1)C1CCC1)P(=O)(O)O` (stereo partly drawn) [compound 13], the inhibition at 100 µM [1] was < 10%, the inhibition at 100 µM (MMP-1) was < 10% and the inhibition at 100 µM (A549 cells) was < 10%. For the same molecule, the inhibition at 100 µM (MMP-2) was < 10%, the inhibition at 100 µM (HepG2 cells) was < 10% and the inhibition at 100 µM (HEK293 cells) was < 10%. The solubility kinetic at 5 min [2] was > 200 µM.

With `CC(=O)c1ccc(NC(=O)[C@@H](NC(=O)C(CC(C)C)P(=O)(O)O)C(C)C)cc1` (stereo partly drawn) [compound 30] the inhibition at 100 µM [1] was < 10%, the inhibition at 100 µM (MMP-1) was < 10% and the inhibition at 100 µM (A549 cells) was < 10%. For the same molecule, the inhibition at 100 µM (MMP-2) was < 10%, the inhibition at 100 µM (HepG2 cells) was < 10% and the inhibition at 100 µM (HEK293 cells) was < 10%. For the same molecule, the solubility kinetic at 5 min [2] was > 200 µM.

With `CC(C)CC(C(=O)N[C@H](C(=O)Nc1ccc(Cl)c(Cl)c1)C1CCCCC1)P(=O)(O)O` (stereo partly drawn) [compound 14] the inhibition at 100 µM [1] was < 10%, the inhibition at 100 µM (MMP-1) was < 10% and the inhibition at 100 µM (A549 cells) was < 10%. For the same molecule, the inhibition at 100 µM (MMP-2) was < 10%, the inhibition at 100 µM (HepG2 cells) was 13% and the inhibition at 100 µM (HEK293 cells) was 51 ± 4%. For the same molecule, the solubility kinetic at 5 min [2] was > 200 µM.

In the case of `CC(=O)c1ccc(NC(=O)[C@@H](NC(=O)[C@@H](CC(C)C)P(=O)(O)O)C(C)C)cc1` [(R)‐30], the inhibition at 100 µM [1] is reported as < 10%, the inhibition at 100 µM (MMP-1) is reported as < 10% and the inhibition at 100 µM (A549 cells) is reported as < 10%. For the same molecule, the inhibition at 100 µM (MMP-2) was < 10%, the inhibition at 100 µM (HepG2 cells) was < 10% and the inhibition at 100 µM (HEK293 cells) was < 10%. For the same molecule, the solubility kinetic at 5 min [2] was > 200 µM.

From PMC11984924, “Dipeptidic Phosphonates: Potent Inhibitors of Pseudomonas aeruginosa Elastase B Showing Efficacy in a Murine Keratitis Model” (Advanced Science, 2025)
